Reference: US20210183467A1, “SYSTEM AND METHOD FOR USING MICROBIOME TO DE-RISK DRUG DEVELOPMENT” (YALE UNIVERSITY, priority 2018, published 2021)

Assays:
[1] = Oral BRV in conventional (CV) and germfree (GF) mice, drug and metabolite levels; format: in vivo, C57BL/6 mice
Method: Oral BRV was administered to conventional (CV) and germfree (GF) C57BL/6 mice, and BRV and BVU concentrations were measured over time along the length of the gastrointestinal tract as shown in FIG. 4C. Serum kinetics of BRV and BVU in conventional (CV) and germ-free (GF) mice were compared following oral BRV administration.
All experiments using mice are performed using protocols approved by the Yale University Institutional Animal Care and Use Committee. Germfree (GF) 8 to 12 week old C57BL/6J mice are maintained in flexible plastic gnotobiotic isolators with a 12-hour light/dark cycle and GF status monitored by PCR and culture-based methods. Conventional C57BL/6J mice (Jackson Laboratories) are purchased at the age of 6-7 weeks and kept in the lab for 2-3 weeks before experiments. All mice are provided a standard, autoclaved mouse chow (5013 LabDiet, Purina) ad libitum.
(§1) Each drug treatment is performed using 20 treated and 5 to 6 untreated animals. Both genders are equally represented in each group and evenly distributed across the different time points for sample collection. Animals (n=5 per time point and group) are given 100 mg/kg body weight of BRV or SRV as suspensions in PBS (200 μL PBS for controls) by oral gavage. One blood sample is collected from each animal at an early time point (0.5, 1, 1.5, or 2 hours after drug administration) by submandibular bleeding. At 3, 5, 7, and 9 h, mice are sacrificed and tissue samples are collected into sample tubes and snap-frozen. Fecal samples are collected before euthanization and re-suspended in PBS (1 mL) through vigorous shaking. 20 μL are then plated on BHI blood plates and incubated aerobically and anaerobically at 37° C. to check GF, GN^WT, and GN^MUT animals for contamination. Monocolonized mice are also checked for contamination by PCR using primers 7 and 8.
200 μL of 0.1 mm zirconia/silica beads (BioSpec Products) and 500 μL of organic solvent (acetonitrile:methanol, 1:1) supplemented with internal standard are added to 50-350 mg of pre-weighed solid material. Material is homogenized by mechanical disruption with a bead beater (BioSpec Products) set for 2 minutes on high setting at room temperature. After incubation for at least 1 h at −20° C., samples are centrifuged (3220 rcf, −9° C.) for 15 min. 10 μL of supernatant are diluted with 10 μL H2O for analysis by LC-MS.
Samples for LS-MS analysis are prepared as described above. Chromatographic separation is performed on a C18 Kinetex Evo column (Phenomenex, 100 mm×2.1 mm, […]) using mobile phase A: H2O, 0.1% formic acid and B: methanol, 0.1% formic acid at 45° C. 5 μL of sample are injected at 100% A and 0.4 mL/min flow followed by a linear gradient to 95% B over 5.5 min and 0.4 mL/min flow leading to thymine, BVU, SRV, and BRV elution at 0.95, 2.0, 2.15, and 2.4 min, respectively. The internal standards caffeine and sulfamethoxazole elute at 1.9 and 2.1 min, respectively. The qTOF is operated in positive scanning mode (50-1000 m/z) and the following source parameters: VCap is 3500 V; nozzle voltage is 2000 V; gas temp is 225 C; drying gas 13 L/min; nebulizer is 20 psig; sheath gas temp is 225 C; and sheath gas flow is 12 L/min. Online mass calibration is performed using a second ionization source and a constant flow (5 μL/min) of reference solution (121.0509 and 922.0098 m/z). Compounds are identified based on the retention time of chemical standards and their accurate mass (tolerance 20 ppm).

[2] = Physiologically based multi-compartment pharmacokinetic model; set-up: species or system mouse; settings: GN^WT mice, oral BRV
Text: These quantitative measurements of drug and metabolite levels, collected over time, were used in various compartments, and in the presence and absence of microbial drug metabolism, to build the predictor module 130 which implements a physiologically based pharmacokinetic model to predict the levels and source of systemic drug and metabolite exposure over time, and quantify the contribution of host and microbiota to systemic drug and metabolite exposure. First, to parameterize processes independent from microbial BRV metabolism (grey compartments in FIG. 19A), a global optimization procedure was used to fit measured BRV and BVU kinetics in serum and intestinal compartments of GN^MUT mice. […]
Measured BRV and BVU kinetics in serum and intestinal compartments of GN^MUT mice were used to parameterize processes independent from bacterial BRV conversion (grey compartments as illustrated in FIG. 19A) using the global optimization procedure to best fit the measured data. […]
To parameterize processes dependent on microbial BRV metabolism (green compartments in FIG. 19A), including bacterial BRV to BVU conversion (kc^B) and BVU absorption rates from cecum and colon (KaLI1^M and kaLI2^M), measured BRV and BVU kinetics in cecum and colon (but not serum) of GN^WT mice, as illustrated in FIGS. 19C and 20A, are used. […]

[3] = format: in vivo, C57BL/6J mice
Method: Germfree mice were colonized with the wildtype and mutant strains. BRV was administered.
Individually caged GF C57BL/6J mice are colonized by oral gavage with 200 μL of an overnight GMM culture of either B. thetaiotaomicron wild type or bt4554 strains to generate GN^WT or GN^MUT mice, respectively. After 4 days, bacterial loads are determined by CFU plating on BHI blood agar prior to drug treatment.
as §1

Structure (SMILES): O=c1[nH]cc(/C=C/Br)c(=O)[nH]1 [BVU, bromovinyluracil]
- BVU concentrations in the liver ([1]; CV compared to GF mice, oral BRV): increased
- BVU intestinal concentrations ([1]; CV mice compared to GF controls, oral BRV): increased intestinal concentrations
- concentrations of BVU in serum ([1]; CV versus GF mice, later timepoints after oral BRV): significantly higher
- microbial share of total BVU exposure in serum (area under the curve) [2]: 77%
- serum BVU levels ([3]; GN^WT compared to GN^MUT mice): significantly higher
- absorption of BVU from cecum and colon ([3]; GN^WT mice): almost entirely absorbed
- BVU levels in the liver ([3]; GN^WT mice after BRV administration): increased BVU levels
